“And” between values parts separate entries of the source, which are not always exact repeats. Equal values may be shown once.
Tested on: CD73
Experiment: Immunoblot of CD73 in HCT116 cells after 4-day treatment
Assay type: cell-based, human
Details: 2 μM, 4 days
Experimental: To establish direct target engagement and cell membrane permeability, a cellular thermal shift assay (CETSA) was carried out, using leading QR2is YB’s-537, 800, and 808. Following a 1 hour preincubation with 5 μM of the QR2is or vehicle, thermal aggregation curves (Taggs) of QR2 expressed in HEK293T were measured in increasing temperatures. All QR2is increased QR2 thermal stability compared with vehicle (Supplemental Figure 2A). Based on the Tagg curves we selected 73°C for isothermal dose-response fingerprint (IDTRF) experiments (Supplemental Figure 2B). The ITDRF allowed the relative quantification of the binding of each of the QR2is to QR2, measured as the EC50 (Figure 3A). […] We evaluated the safety of the QR2is using cell toxicity and viability assays. […] Cell viability was assessed by XTT assay in HEK239T cells, using a dose response, with 3- or 24-hour incubations of the leading QR2is. […] We then assessed WT HCT116 cells by immunoblot (Supplemental Figure 2, C and D), after being treated with YB-800 (2 μM) for 4 consecutive days. […]
The cells wer e har ves t ed a nd resuspended in 1% cl ear m e di um ( DM EM – with no phenol red, suppl em ent ed with 1% FBS, 1% L-Glutamine and 1% Penicillin-Streptomycin). […] The plate wa s then incubated in the dark at 37°C f or 3 h, before reading in a Tecan M200 Pro florescence microplate reader, using wavelengths Ex/Em = 485 nm / 535 nm . […]

In the case of `Cc1ccc(-c2cn3cccc(C)c3n2)cc1S(=O)(=O)N1CCC(C)CC1` [YB-800], the “CD73 expression (replicates)” value is reported as 1.393 and 1.4862 and 1.532 and 1.811 and 1.4595 and 1.188.
